{
  "source": "paper PMC8047873",
  "about": "“An antibiotic-resistance conferring mutation in a neisserial porin: Structure, ion flux, and ampicillin binding” (Biochimica et Biophysica Acta. Biomembranes, 2021)",
  "target": "T1, PorB (wt PorB) (Neisseria meningitidis, UniProt M4GGR4)",
  "T1 construct": "outer membrane porin, homotrimer, purified in LDAO and inserted in planar lipid bilayers or liposomes; about 340 residues; expression as described previously",
  "T1 sequence (M4GGR4 entry or part of it)": "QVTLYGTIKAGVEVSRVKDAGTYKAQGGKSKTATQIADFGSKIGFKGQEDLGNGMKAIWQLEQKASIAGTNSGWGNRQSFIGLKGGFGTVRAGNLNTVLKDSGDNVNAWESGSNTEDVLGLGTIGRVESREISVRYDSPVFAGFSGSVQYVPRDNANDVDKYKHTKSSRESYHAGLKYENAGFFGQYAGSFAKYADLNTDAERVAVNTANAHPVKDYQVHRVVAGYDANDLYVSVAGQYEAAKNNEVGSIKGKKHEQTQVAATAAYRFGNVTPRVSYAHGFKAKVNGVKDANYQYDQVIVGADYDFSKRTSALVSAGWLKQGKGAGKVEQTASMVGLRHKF",
  "assay": "single-channel electrophysiology, planar black lipid membrane, JULES idealization",
  "format": "binding",
  "conditions": "+80 mV, 1 M KCl, 10 mM HEPES, pH 7.5; DPhPC/cholesterol 9:1; pore block",
  "data": [
    {"smiles": "CC1(C)S[C@@H]2[C@H](NC(=O)[C@H](N)c3ccccc3)C(=O)N2[C@H]1C(=O)O", "note": "[ampicillin]", "values": [
      {"measurement": "residence time τR", "value": "35 ± 1", "unit": "μs"}
    ]}
  ]
}
